Laboratory results taken from patent US20030224422A1, “Pre-and post therapy gene expression profiling to identify drug targets” (St. Jude Children's Research Hospital, Inc., priority 2002, published 2003).

Test system: bone marrow leukemic blasts obtained from children with ALL
Assay: Oligonucleotide microarray (Affymetrix HG-U95A) fold-change in gene expression, post-treatment vs diagnosis, in patients in vivo
Parameters: species or system human
Details: for number of genes that were down-regulated after single agent / number of genes that were up-regulated (increased) after single agent: changed by >50% in over 70% of patients; for number of genes that changed expression by at least 50%: in over 70% of patients treated
Experimental: To elucidate genomic determinants of leukemia response to chemotherapy, oligonucleotide microarrays (Affymetrix® HG-U95A GeneChip) were used to analyze expression of approximately 9,600 human genes in bone marrow leukemic blasts obtained from children with ALL, at diagnosis and one day post-treatment with mercaptopurine (1 gm/^2 IV) or methotrexate (MTX) given alone (1 gm/m^2 IV), or mercaptopurine (6-MP) in combination with either low-dose MTX [180 mg/m^2 orally] or high-dose MTX [[…]]). A stratified (immunophenotype, DNA ploidy) randomization was used to assign treatment, and the fold-change in gene expression (post-treatment to diagnosis) was computed for 60 patients. Using linear discriminate analysis with variance (LDAV) genes that most discriminated among treatments were selected based on expression changes (fold-change from diagnosis to post-treatment) or based on post-treatment expression levels alone. […] Leave-one-out cross-validation using support-vector-machine (SVM), based on the 120 most discriminating genes, correctly classified 60 out of 60 patients (100%) based on fold-change versus 58 out of 60 (96.7%) using only post-treatment expression profiles. The smallest number of genes for discrimination among treatments was 120 using fold-change, which included genes involved in cellular processes such as apoptosis, cell cycle control and stress response. Together, these in vivo data reveal unique, treatment-specific changes in gene expression in primary leukemia cells, establishing that changes in expression differ according to the specific medication, dosage and combination given. These findings provide new insights to cancer cell responses to chemotherapy and can be used to illuminate mechanisms of leukemia resistance and identify novel targets to augment existing treatment modalities.
Primary leukemia cells. This study included 60 patients with ALL enrolled on St. Jude Children's Research Hospital Total Therapy Studies XIIIB and XV. Bone marrow samples were obtained at diagnosis (pre-treatment) and one day post-treatment with mercaptopurine (6-MP) or methotrexate (MTX) given alone, or mercaptopurine in combination with either low-dose MTX (LDMTX/6-MP) or high-dose MTX (HDMTX/6-MP). A stratified (immunophenotype, DNA ploidy) randomization was used to assign treatment. Total RNA was extracted from cryopreserved mononuclear cell suspensions with TriReagent (MRC, Cincinnati, Ohio).
Mircoarray analysis. High quality RNA was hybridized to Affymetrix HG-U95A GeneChipe (12,600 probe sets, ˜9,600 human genes) according to the manufacturers protocol (Affymetrix, Santa Clara, Calif.). Scaled gene expression values for pre-treatment, post-treatment and fold-change (post-treatment vs. pre-treatment ratio) were calculated using Affymetrix Microarray Suite® (MAS) 5.0.
Gene expression data analysis. Analysis was done on fold-change and on post-treatment expression. The data were log-transformed and probe sets were filtered out if “absent” in all 120 arrays or if “no change” in all 60 fold-change ratios. Principal component analysis (PCA) and 2D-hierarchical clustering was performed using GeneMath 1.5 (AppliedMaths, Belgium). We applied supervised methods to find the most discriminating genes, including Linear Discriminant Analysis with Variance (LDAV) (GeneMaths) and ANOVA. Probe sets were ranked according to their discriminating power. To establish that these genes could classify treatments and to find significant genes, leave-one-out cross-validation was performed by support vector machine (SVM) with the top ranked probe sets. […] The p-value is defined as the probability of observing a misclassification rate less or equal to that in the experimental data. 250 permutations were performed. To distinguish one treatment from the other treatments, distinction calculation (Spotfire 6.3, Somerville, Mass.) was performed for each probe set. Permutations (n=1000) were performed to obtain the p-values. […]

Row | SMILES | number of genes that were down-regulated after single agent [genes] | number of genes that were up-regulated (increased) after single agent [genes] | number of genes that changed expression by at least 50% [genes] | difference in gene expression between infusion for 24 h and infusion for 4 h (HDMTX 24 h vs 4 h infusion, data pooled)
1 | S=c1nc[nH]c2nc[nH]c12 [MP, Mercaptopurine] | 40 | 158 | 197 | 
2 | CN(Cc1cnc2nc(N)nc(N)c2n1)c1ccc(C(=O)N[C@@H](CCC(=O)O)C(=O)O)cc1 [HDMTX, Methotrexate] | 59 | 38 | 97 | No difference
